Data taken from patent US11371077B2, “High throughput cell-based screening for aptamers” (MeiraGTx UK II Limited, priority 2016, dated 2022).
Where a name gives a salt, the structure may show the parent alone. Read-outs that look alike come from different tables or passages of the source. Where a SMILES comes first, the peptide text is derived from it. [ ]: non-standard residue; d: D form. The star is where a group is joined. Sta = CC(C)C[C@H](N)[C@@H](O)CC(=O)O; Isovaleryl = CC(C)CC(=O)*

Tests used:
Assay type in all cases: cell-based
ydhl-A6 riboswitch = test: Luciferase reporter assay, ydhl-A6 riboswitch, transfected HEK 293 cells; settings: for fold induction at 100 µM: Homo sapiens
From the text: (§1) A truncated human beta-globin intron sequence was synthesized and inserted in the coding sequence of a firefly luciferase gene. A mutant human DHFR exon 2 was synthesized and inserted in the middle of this truncated beta-globin intron sequence using Golden gate cloning strategy. Aptamers including xpt-G/A^1, ydhl-G/A^2, yxj^3, add^4, gdg6-G/A^5 (citations for the aptamers are incorporated herein by reference) were synthesized as oligonucleotides (“oligos”) with 4 nucleotide overhang at the 5′ end that are complementary to two different BsaI sites individually (IDT), annealed and ligated to BsaI-digested mDHFR-Luci-acceptor vector.
(§2) 3.5×10^4 HEK 293 cells were plated in a 96-well flat bottom plate the day before transfection. Plasmid DNA (500 ng) was added to a tube or a 96-well U-bottom plate. […] Then, 50 μL of this diluted transfection reagent was added to the DNA, mixed, and incubated at RT for 20 min. Finally, 7 μL of this solution was added to a well of cells in the 96-well plate.
(§3) 24 hours after media change, plates were removed from the incubator, and equilibrated to RT for several minutes on a lab bench, then aspirated. Glo-lysis buffer (Promega, 100 μL, RT) was added, and the plates maintained at RT for at least 5 minutes. Then, the well contents were mixed by 50 μL trituration, and 20 μL of each sample was mixed with 20 μL of bright-glo reagent (Promega) that had been diluted to 10% in glo-lysis buffer. 96 wells were spaced on an opaque white 384-well plate. Following a 5 min incubation at RT, luminescence was measured using a Tecan machine with 500 mSec read time. The luciferase activity was expressed as mean relative light unit (RLU)±S.D., and fold induction was calculated as the luciferase activity obtained with guanine treatment divided by luciferase activity obtained without guanine treatment.

gdg6-A8 riboswitch = test: Luciferase reporter assay, gdg6-A8 riboswitch, transfected HEK 293 cells; settings: for fold induction at 100 µM: Homo sapiens, HEK293, gdg6-A8 riboswitch, Prestwick library compounds at 100 μM, HEK 293; for Fold Induction of luciferase activity: 100 µM
From the text: (§4) Riboswitches were constructed as described in PCT/US2016/016234 (in particular Examples 3 to 6), incorporated herein by reference. A truncated human beta-globin intron sequence was synthesized and inserted in the coding sequence of a firefly luciferase gene. A mutant human DHFR exon 2 was synthesized and inserted in the middle of this truncated beta-globin intron sequence using Golden gate cloning strategy. Aptamers including xpt-G/A^1, ydhl-G/A^2, yxj^3, add^4, gdg6-G/A^5 (citations for the aptamers are incorporated herein by reference) were synthesized as oligonucleotides (“oligos”) with 4 nucleotide overhang at the 5′ end that are complementary to two different BsaI sites individually (IDT), annealed and ligated to BsaI-digested mDHFR-Luci-acceptor vector.
(§5) 3.5×10^4 HEK 293 cells were plated in a 96-well flat bottom plate the day before transfection. Plasmid DNA (500 ng) was added to a tube or a 96-well U-bottom plate. Separately, TransIT-293 reagent (Mirus; 1.4 μL) was added to 50 μL Opti-mem I media (Life Technologies), and allowed to sit for 5 minutes at room temperature (RT). Then, 50 μL of this diluted transfection reagent was added to the DNA, mixed, and incubated at RT for 20 min. Finally, 7 μL of this solution was added to a well of cells in the 96-well plate.
as §3

yxj-A6 riboswitch = test: cells; settings: for fold induction at 100 µM: Homo sapiens
From the text: as §1, §5
as §3, with “The luciferase activity was expressed as mean relative light unit (RLU)±S.D., and fold induction was calculated as the luciferase activity obtained with guanine treatment divided by luciferase activity obtained without guanine treatment.” left out

add-G6 riboswitch = test: cells; settings: for fold induction at 100 µM: Homo sapiens
From the text: as §1, §2
as §3, with “The luciferase activity was expressed as mean relative light unit (RLU)±S.D., and fold induction was calculated as the luciferase activity obtained with guanine treatment divided by luciferase activity obtained without guanine treatment.” left out

xpt-G17 riboswitch = test: Luciferase reporter assay, xpt-G17 riboswitch, transfected HEK 293 cells; settings: Prestwick library compounds at 100 μM, HEK 293, preliminary screen; for fold induction at 100 µM: Homo sapiens, HEK293, xpt-G17 riboswitch; for Fold Induction of luciferase activity: xpt-G17 riboswitch
From the text: as §1, §5, §3

gdg6-G8 riboswitch = test: Luciferase reporter assay, gdg6-G8 riboswitch, transfected HEK 293 cells; settings: for fold induction at 100 µM: Homo sapiens, HEK293, gdg6-G8 riboswitch, Prestwick library compounds at 100 μM, HEK 293; for Fold Induction of luciferase activity: 100 µM
From the text: as §4, §5, §3

add-A6 riboswitch = test: cells; settings: for fold induction at 100 µM: Homo sapiens
From the text: as §4, §5, §3

xpt-A8 riboswitch = test: cells; settings: for fold induction at 100 µM: Homo sapiens
From the text: as §4, §5, §3

ydhl-G8 riboswitch = test: Luciferase reporter assay, ydhl-G8 riboswitch, transfected HEK 293 cells; settings: ydhl-G8 riboswitch, Prestwick library compounds at 100 μM, HEK 293
From the text: as §1, §2, §3

[1] = ydhl-A6 riboswitch, Prestwick library compounds at 100 μM, HEK 293
[2] = HEK293, yxj-A6 riboswitch, Prestwick library compounds at 100 μM, HEK 293, read-out: Fold Induction of luciferase activity
[3] = HEK293, add-G6 riboswitch, Prestwick library compounds at 100 μM, HEK 293, read-out: Fold Induction of luciferase activity
[4] = HEK293, add-A6 riboswitch, Prestwick library compounds at 100 μM, HEK 293, read-out: Fold Induction of luciferase activity
[5] = HEK293, xpt-A8 riboswitch, Prestwick library compounds at 100 μM, HEK 293, read-out: Fold Induction of luciferase activity
[6] = HEK293, read-out: Fold Induction of luciferase activity
[7] = add-A6 riboswitch, Prestwick library compounds at 100 μM, HEK 293
[8] = yxj-A6 riboswitch, Prestwick library compounds at 100 μM, HEK 293
[9] = add-G6 riboswitch, Prestwick library compounds at 100 μM, HEK 293

## CC(C)CC(=O)N[C@H](C(=O)N[C@H](C(=O)N[C@@H](CC(C)C)[C@@H](O)CC(=O)N[C@@H](C)C(=O)N[C@@H](CC(C)C)[C@@H](O)CC(=O)O)C(C)C)C(C)C [Pepstatin A] (Isovaleryl-VV[Sta]A[Sta]-OH)
ydhl-A6 riboswitch; [1]
  Fold Induction of luciferase activity: 4.0 fold

## CN1CCC(=C2c3ccccc3Sc3ccccc32)CC1 [Pimethixene maleate]
gdg6-A8 riboswitch
  fold induction at 100 µM: 9.2
yxj-A6 riboswitch; [2]
  fold induction at 100 µM: 4.9
add-G6 riboswitch; [3]
  fold induction at 100 µM: 6.6
xpt-G17 riboswitch
  fold induction at 100 µM: 4.7
gdg6-G8 riboswitch
  fold induction at 100 µM: 5.1
add-A6 riboswitch; [4]
  fold induction at 100 µM: 4.2
xpt-A8 riboswitch; [5]
  fold induction at 100 µM: 3.3

## CCN1CCCC(OC(=O)C(c2ccccc2)c2ccccc2)C1 (stereo not drawn) [Piperidolate hydrochloride]
ydhl-A6 riboswitch; [6]
  fold induction at 100 µM: 3.4

## CN(C)CCCN1c2ccccc2Sc2ccccc21 [Promazine hydrochloride]
gdg6-A8 riboswitch
  fold induction at 100 µM: 12.6
ydhl-G8 riboswitch; Homo sapiens, HEK293, read-out: Fold Induction of luciferase activity
  fold induction at 100 µM: 5.2
yxj-A6 riboswitch; [6]
  fold induction at 100 µM: 6.6
add-G6 riboswitch; [6]
  fold induction at 100 µM: 5.4
xpt-G17 riboswitch
  fold induction at 100 µM: 3.7
gdg6-G8 riboswitch
  fold induction at 100 µM: 6.2
add-A6 riboswitch; [6]
  fold induction at 100 µM: 10.5
xpt-A8 riboswitch; [6]
  fold induction at 100 µM: 4.1

## CC(CN1c2ccccc2Sc2ccccc21)N(C)C (stereo not drawn) [Promethazine hydrochloride]
gdg6-A8 riboswitch
  fold induction at 100 µM: 4.8
yxj-A6 riboswitch; [2]
  fold induction at 100 µM: 7.9
add-G6 riboswitch; [3]
  fold induction at 100 µM: 6.7
xpt-G17 riboswitch
  fold induction at 100 µM: 5.3
gdg6-G8 riboswitch
  fold induction at 100 µM: 6.5
add-A6 riboswitch; [4]
  fold induction at 100 µM: 4.5
xpt-A8 riboswitch; [5]
  fold induction at 100 µM: 5.4

## Nc1ccc(S(=O)(=O)Nc2cnc3ccccc3n2)cc1 [Sulfaquinoxaline sodium]
yxj-A6 riboswitch; [2]
  fold induction at 100 µM: 3.4
add-A6 riboswitch; [4]
  fold induction at 100 µM: 3.3

## COc1cc2nc(N3CCN(C(=O)C4CCCO4)CC3)nc(N)c2cc1OC (stereo not drawn) [Terazosin hydrochloride]
add-A6 riboswitch; [4]
  fold induction at 100 µM: 3.5

## Clc1ccccc1CN1CCc2sccc2C1 [Ticlopidine hydrochloride]
ydhl-A6 riboswitch; HEK293, ydhl-A6 riboswitch, Prestwick library compounds at 100 μM, HEK 293, read-out: Fold Induction of luciferase activity
  fold induction at 100 µM: 3.1

## CC[C@]12CCCN3CCc4c(n(c5ccccc45)[C@@](O)(C(=O)OC)C1)[C@@H]32 [Vincamine]
ydhl-A6 riboswitch; [6]
  fold induction at 100 µM: 3.3

## Alverine citrate salt
ydhl-A6 riboswitch; [1]
  Fold Induction of luciferase activity: 4.2 fold

## Deptropine citrate
add-A6 riboswitch; [7]
  Fold Induction of luciferase activity: 3.3 fold

## Trimeprazine tartrate
gdg6-A8 riboswitch
  Fold Induction of luciferase activity: 8.7 fold
ydhl-G8 riboswitch
  Fold Induction of luciferase activity: 5.0 fold
yxj-A6 riboswitch; [8]
  Fold Induction of luciferase activity: 7.0 fold
add-G6 riboswitch; [9]
  Fold Induction of luciferase activity: 6.2 fold
xpt-G17 riboswitch
  Fold Induction of luciferase activity: 4.9 fold
gdg6-G8 riboswitch
  Fold Induction of luciferase activity: 6.2 fold
add-A6 riboswitch; [7]
  Fold Induction of luciferase activity: 4.0 fold

## Trimipramine maleate salt
gdg6-A8 riboswitch
  Fold Induction of luciferase activity: 5.3 fold
yxj-A6 riboswitch; [8]
  Fold Induction of luciferase activity: 3.3 fold
add-G6 riboswitch; [9]
  Fold Induction of luciferase activity: 3.4 fold
gdg6-G8 riboswitch
  Fold Induction of luciferase activity: 3.3 fold
add-A6 riboswitch; [7]
  Fold Induction of luciferase activity: 3.4 fold

## thioguanosine
gdg6-A8 riboswitch
  Fold Induction of luciferase activity: 20.1 fold
ydhl-G8 riboswitch
  Fold Induction of luciferase activity: 7.5 fold
yxj-A6 riboswitch; [8]
  Fold Induction of luciferase activity: 10.2 fold
add-G6 riboswitch; [9]
  Fold Induction of luciferase activity: 7.9 fold
xpt-G17 riboswitch
  Fold Induction of luciferase activity: 21.0 fold
gdg6-G8 riboswitch
  Fold Induction of luciferase activity: 15.9 fold
add-A6 riboswitch; [7]
  Fold Induction of luciferase activity: 5.9 fold
xpt-A8 riboswitch; xpt-A8 riboswitch, Prestwick library compounds at 100 μM, HEK 293
  Fold Induction of luciferase activity: 11.8 fold
